Experimental data reported in ChEMBL document CHEMBL6182888, “Design, synthesis, and biological activity study of 6,7-dimethoxy-1,2,3,4-tetrahydroisoquinoline derivatives against multidrug resistance in Eca109/VCR cells” (Eur J Med Chem, 2025).

Assays:
[1] = Reversal fold, ratio of vincristine IC50 to vincristine IC50 in presence of test compound for reversal of drug resistance in human Eca-109/VCR cells at 5 uM incubated for 48 hrs by CCK-8 assay; assay type: functional
Eca-109/VCR [2] = assay: Cytotoxicity against human Eca-109/VCR cells assessed as reduction in cell viability at 5.0 uM incubated for 48 hrs by CCK-8 assay relative to control; assay type: functional
Eca-109/VCR [3] = assay: Induction of apoptosis in human Eca-109/VCR cells assessed as late apoptotic cells at 2.5 uM incubated for 60 hrs by Annexin V-FITC/PI staining based flow cytometric analysis (reference value: 0.70%); assay type: functional
Eca-109/VCR [4] = assay: Induction of apoptosis in human Eca-109/VCR cells assessed as viable cells at 5 uM incubated for 60 hrs in presence of vincristine by Annexin V-FITC/PI staining based flow cytometric analysis (reference value: 97.3%); assay type: functional; conditions: read-out: Activity
Eca-109/VCR [5] = assay: Induction of apoptosis in human Eca-109/VCR cells assessed as late apoptotic cells at 2.5 uM incubated for 60 hrs in presence of vincristine by Annexin V-FITC/PI staining based flow cytometric analysis (reference value: 0.56%); assay type: functional
Eca-109/VCR [6] = assay: Induction of apoptosis in human Eca-109/VCR cells assessed as necrotic cells at 2.5 uM incubated for 60 hrs by Annexin V-FITC/PI staining based flow cytometric analysis (reference value: 0.22%); assay type: functional
Eca-109/VCR [7] = assay: Induction of apoptosis in human Eca-109/VCR cells assessed as viable cells at 5 uM incubated for 60 hrs by Annexin V-FITC/PI staining based flow cytometric analysis (reference value: 97.4%); assay type: functional; conditions: read-out: Activity
Eca-109/VCR [8] = assay: Induction of apoptosis in human Eca-109/VCR cells assessed as early apoptotic cells at 2.5 uM incubated for 60 hrs by Annexin V-FITC/PI staining based flow cytometric analysis (reference value: 1.66%); assay type: functional
Eca-109/VCR [9] = assay: Induction of apoptosis in human Eca-109/VCR cells assessed as early apoptotic cells at 5 uM incubated for 60 hrs by Annexin V-FITC/PI staining based flow cytometric analysis (reference value: 1.66%); assay type: functional
Eca-109/VCR [10] = assay: Induction of apoptosis in human Eca-109/VCR cells assessed as viable cells at 2.5 uM incubated for 60 hrs by Annexin V-FITC/PI staining based flow cytometric analysis (reference value: 97.4%); assay type: functional; conditions: read-out: Activity
Eca-109/VCR [11] = assay: Induction of apoptosis in human Eca-109/VCR cells assessed as necrotic cells at 2.5 uM incubated for 60 hrs in presence of vincristine by Annexin V-FITC/PI staining based flow cytometric analysis (reference value: 0.10%); assay type: functional
Eca-109/VCR [12] = assay: Induction of apoptosis in human Eca-109/VCR cells assessed as necrotic cells at 5 uM incubated for 60 hrs in presence of vincristine by Annexin V-FITC/PI staining based flow cytometric analysis (reference value: 0.10%); assay type: functional
Eca-109/VCR [13] = assay: Induction of apoptosis in human Eca-109/VCR cells assessed as necrotic cells at 5 uM incubated for 60 hrs by Annexin V-FITC/PI staining based flow cytometric analysis (reference value: 0.22%); assay type: functional
Eca-109/VCR [14] = assay: Induction of apoptosis in human Eca-109/VCR cells assessed as late apoptotic cells at 5 uM incubated for 60 hrs in presence of vincristine by Annexin V-FITC/PI staining based flow cytometric analysis (reference value: 0.56%); assay type: functional
Eca-109/VCR [15] = assay: Induction of apoptosis in human Eca-109/VCR cells assessed as viable cells at 2.5 uM incubated for 60 hrs in presence of vincristine by Annexin V-FITC/PI staining based flow cytometric analysis (reference value: 97.3%); assay type: functional; conditions: read-out: Activity
Eca-109/VCR [16] = assay: Induction of apoptosis in human Eca-109/VCR cells assessed as late apoptotic cells at 5 uM incubated for 60 hrs by Annexin V-FITC/PI staining based flow cytometric analysis (reference value: 0.70%); assay type: functional
ECa-109 cell line = assay: Cytotoxicity against human Eca-109 cells incubated for 48 hrs by CCK-8 assay; assay type: functional, cell-based; conditions: ECa-109, 48 h

Structure (SMILES)	Ratio IC50 [1]	Cell viability (% of control) (Eca-109/VCR [2])	also measured
CCCCCCCCOc1ccc(CC2c3cc(OC)c(OC)cc3CCN2C)cc1OC (stereo unspecified)	82.6	94.7%	
COc1cc2c(cc1OC)C(Cc1ccc(OC)c(OS(=O)(=O)c3ccccc3F)c1)N(C)CC2 (stereo unspecified)	16.5	98.9%	
C=CCCCCOc1ccc(CC2c3cc(OC)c(OC)cc3CCN2C)cc1OC (stereo unspecified)	1.9	103.4%	
COc1cc2c(cc1OC)C(Cc1ccc(OC)c(OCCc3ccccc3)c1)N(C)CC2 (stereo unspecified)	12.3	102.4%	
COc1cc2c(cc1OC)C(Cc1ccc(OS(=O)(=O)c3ccc(C#N)cc3)c(OC)c1)N(C)CC2 (stereo unspecified)	168.5	99.9%	
COc1cc2c(cc1OC)C(Cc1ccc(OS(=O)(=O)c3ccc([N+](=O)[O-])cc3)c(OC)c1)N(C)CC2 (stereo unspecified)	172.2	105.6%	
COc1cc2c(cc1OC)C(Cc1ccc(OC)c(OS(=O)(=O)c3ccc(C(F)(F)F)cc3)c1)N(C)CC2 (stereo unspecified)	371.9	100.5%	
COc1cc2c(cc1OC)C(Cc1ccc(OC)c(OCc3ccc(Br)cc3)c1)N(C)CC2 (stereo unspecified)	158	97.8%	
COc1cc2c(cc1OC)C(Cc1ccc(OC)c(OCCCc3ccccc3)c1)N(C)CC2 (stereo unspecified)	124.1	96.9%	
COc1cc2c(cc1OC)C(Cc1ccc(OCc3ccc(Br)cc3)c(OC)c1)N(C)CC2 (stereo unspecified)	201.2	91.1%	
COc1cc2c(cc1OC)C(Cc1ccc(OS(=O)(=O)c3ccccc3F)c(OC)c1)N(C)CC2 (stereo unspecified)	274.3	98.2%	
COc1cc2c(cc1OC)C(Cc1ccc(OCCCc3ccccc3)c(OC)c1)N(C)CC2 (stereo unspecified)	162.4	103.3%	
COc1cc2c(cc1OC)C(Cc1ccc(OS(=O)(=O)Cc3ccccc3)c(OC)c1)N(C)CC2 (stereo unspecified)	171.6	102.6%	
COc1cc2c(cc1OC)C(Cc1ccc(OC)c(OS(=O)(=O)c3ccccc3[N+](=O)[O-])c1)N(C)CC2 (stereo unspecified)	253.3	102%	
COc1cc2c(cc1OC)C(Cc1ccc(OCCc3ccccc3)c(OC)c1)N(C)CC2 (stereo unspecified)	1.8	104.2%	
COc1cc2c(cc1OC)C(Cc1ccc(OC)c(Oc3ccc([N+](=O)[O-])cc3)c1)N(C)CC2 (stereo unspecified)	53.2	100.4%	
COc1cc2c(cc1OC)CN(CCc1ccc(NC(=O)c3cc(OC)c(OC)cc3NC(=O)c3cnc4ccccc4c3)cc1)CC2 [TARIQUIDAR]		84.8%	Activity (Eca-109/VCR [3]): 0.64%; viability at 5 µM (Eca-109/VCR [4]): 63.4%; Activity (Eca-109/VCR [5]): 7.6%; Activity (Eca-109/VCR [6]): 0.22%; viability at 5 µM (Eca-109/VCR [7]): 95.6%; Activity (Eca-109/VCR [8]): 1%; Activity (Eca-109/VCR [9]): 3.18%; viability at 2.5 µM (Eca-109/VCR [10]): 96.1%; Activity (Eca-109/VCR [11]): 0.47%; Activity (Eca-109/VCR [12]): 0.57%; Activity (Eca-109/VCR [13]): 0.21%; Activity (Eca-109/VCR [14]): 7%; viability at 2.5 µM (Eca-109/VCR [15]): 63.2%
CCOCCOCCOc1ccc(CC2c3cc(OC)c(OC)cc3CCN2C)cc1OC (stereo unspecified)	8.5	103.6%	
COc1cc2c(cc1OC)C(Cc1ccc(OS(=O)(=O)c3ccc(C(F)(F)F)cc3)c(OC)c1)N(C)CC2 (stereo unspecified)	307.4	90.4%	
COc1cc2c(cc1OC)C(Cc1ccc(OC)c(OS(=O)(=O)c3ccc([N+](=O)[O-])cc3)c1)N(C)CC2 (stereo unspecified)	141.5	101.5%	
COc1cc2c(cc1OC)C(Cc1ccc(OC)c(OS(=O)(=O)c3ccccc3)c1)N(C)CC2 (stereo unspecified)	24	102.6%	
COC(=O)c1sccc1S(=O)(=O)Oc1ccc(CC2c3cc(OC)c(OC)cc3CCN2C)cc1OC (stereo unspecified)	182.2	101.9%	

Structure (SMILES)	Ratio IC50 [1]	Cell viability (% of control) (Eca-109/VCR [2])	also measured
COc1cc2c(cc1OC)C(Cc1ccc(OC)c(OCC(=O)OC(C)(C)C)c1)N(C)CC2 (stereo unspecified)	3.6	104.3%	
COC(=O)c1sccc1S(=O)(=O)Oc1cc(CC2c3cc(OC)c(OC)cc3CCN2C)ccc1OC (stereo unspecified)	12.3	100.7%	
COc1cc2c(cc1OC)C(Cc1ccc(OCc3ccc(Cl)cc3Cl)c(OC)c1)N(C)CC2 (stereo unspecified)	307.6	92.4%	
COc1cc2c(cc1OC)C(Cc1ccc(OC)c(OCC3CC3)c1)N(C)CC2 (stereo unspecified)	6.3	105.6%	
C=CCCCCOc1cc(CC2c3cc(OC)c(OC)cc3CCN2C)ccc1OC (stereo unspecified)	15.2	98.2%	
COc1cc2c(cc1OC)C(Cc1ccc(OCC3CC3)c(OC)c1)N(C)CC2 (stereo unspecified)	1.5	104.2%	
COc1ccc(CCN(C)CCCC(C#N)(c2ccc(OC)c(OC)c2)C(C)C)cc1OC (stereo unspecified) [VERAPAMIL]		98.9%	Activity (Eca-109/VCR [3]): 0.55%; viability at 5 µM (Eca-109/VCR [4]): 75.4%; Activity (Eca-109/VCR [5]): 0.85%; Activity (Eca-109/VCR [16]): 0.72%; Activity (Eca-109/VCR [6]): 0.2%; viability at 5 µM (Eca-109/VCR [7]): 96.2%; Activity (Eca-109/VCR [8]): 1.19%; Activity (Eca-109/VCR [9]): 1.12%; Activity (Eca-109/VCR [11]): 0.17%; Activity (Eca-109/VCR [12]): 0.34%; Activity (Eca-109/VCR [13]): 0.13%; Activity (Eca-109/VCR [14]): 5.95%; viability at 2.5 µM (Eca-109/VCR [15]): 96%
COc1cc2c(cc1OC)C(Cc1ccc(OC)c(OS(=O)(=O)c3ccc4ccccc4c3)c1)N(C)CC2 (stereo unspecified)	340.5	94.7%	
COc1cc2c(cc1OC)C(Cc1ccc(OC)c(OS(=O)(=O)Cc3ccccc3)c1)N(C)CC2 (stereo unspecified)	180	101.5%	
COc1cc2c(cc1OC)C(Cc1ccc(OCCC(C)C)c(OC)c1)N(C)CC2 (stereo unspecified)	227.1	105.5%	
COc1cc2c(cc1OC)C(Cc1ccc(OC)c(OS(=O)(=O)c3ccc(C#N)cc3)c1)N(C)CC2 (stereo unspecified)	235.4	96%	
CCOCCOCCOc1cc(CC2c3cc(OC)c(OC)cc3CCN2C)ccc1OC (stereo unspecified)	2.2	103.1%	
COc1cccc2c1C(=O)c1c(O)c3c(c(O)c1C2=O)C[C@@](O)(C(=O)CO)C[C@@H]3O[C@H]1C[C@H](N)[C@H](O)[C@H](C)O1 [DOXORUBICIN]			IC50 (ECa-109 cell line): 2070 nM
COc1cc2c(cc1OC)C(Cc1ccc(OCC3CCC3)c(OC)c1)N(C)CC2 (stereo unspecified)	188.7	107.9%	
COc1cc2c(cc1OC)C(Cc1ccc(OC)c(OCc3ccc(Cl)cc3Cl)c1)N(C)CC2 (stereo unspecified)	412.3	55.4%	
COc1cc2c(cc1OC)C(Cc1ccc(OCC3CCCCC3)c(OC)c1)N(C)CC2 (stereo unspecified)	280	87.7%	
COc1cc2c(cc1OC)C(Cc1ccc(OS(=O)(=O)c3ccc4ccccc4c3)c(OC)c1)N(C)CC2 (stereo unspecified)	362.1	84.7%	
CCCCCCCCOc1cc(CC2c3cc(OC)c(OC)cc3CCN2C)ccc1OC (stereo unspecified)	159	95.3%	
COc1cc2c(cc1OC)C(Cc1ccc(OCc3ccccc3)c(OC)c1)N(C)CC2 (stereo unspecified)	80.3	101.4%	
COc1cc2c(cc1OC)C(Cc1ccc(OC)c(OCC3CCC3)c1)N(C)CC2 (stereo unspecified)	122.6	102.7%	
COc1cc2c(cc1OC)C(Cc1ccc(OC)c(OC(=O)c3ccc4ccccc4c3)c1)N(C)CC2 (stereo unspecified)	107.9	101.1%	
COc1cc2c(cc1OC)C(Cc1ccc(OC)c(OC(=O)C3CCCCC3)c1)N(C)CC2 (stereo unspecified)	4.5	103.6%	
